Tests used:
Androgen receptor [1] = molecular target: T1, Androgen receptor (Homo sapiens, UniProt P10275); assay: biochemical
T1 sequence (P10275 whole entry): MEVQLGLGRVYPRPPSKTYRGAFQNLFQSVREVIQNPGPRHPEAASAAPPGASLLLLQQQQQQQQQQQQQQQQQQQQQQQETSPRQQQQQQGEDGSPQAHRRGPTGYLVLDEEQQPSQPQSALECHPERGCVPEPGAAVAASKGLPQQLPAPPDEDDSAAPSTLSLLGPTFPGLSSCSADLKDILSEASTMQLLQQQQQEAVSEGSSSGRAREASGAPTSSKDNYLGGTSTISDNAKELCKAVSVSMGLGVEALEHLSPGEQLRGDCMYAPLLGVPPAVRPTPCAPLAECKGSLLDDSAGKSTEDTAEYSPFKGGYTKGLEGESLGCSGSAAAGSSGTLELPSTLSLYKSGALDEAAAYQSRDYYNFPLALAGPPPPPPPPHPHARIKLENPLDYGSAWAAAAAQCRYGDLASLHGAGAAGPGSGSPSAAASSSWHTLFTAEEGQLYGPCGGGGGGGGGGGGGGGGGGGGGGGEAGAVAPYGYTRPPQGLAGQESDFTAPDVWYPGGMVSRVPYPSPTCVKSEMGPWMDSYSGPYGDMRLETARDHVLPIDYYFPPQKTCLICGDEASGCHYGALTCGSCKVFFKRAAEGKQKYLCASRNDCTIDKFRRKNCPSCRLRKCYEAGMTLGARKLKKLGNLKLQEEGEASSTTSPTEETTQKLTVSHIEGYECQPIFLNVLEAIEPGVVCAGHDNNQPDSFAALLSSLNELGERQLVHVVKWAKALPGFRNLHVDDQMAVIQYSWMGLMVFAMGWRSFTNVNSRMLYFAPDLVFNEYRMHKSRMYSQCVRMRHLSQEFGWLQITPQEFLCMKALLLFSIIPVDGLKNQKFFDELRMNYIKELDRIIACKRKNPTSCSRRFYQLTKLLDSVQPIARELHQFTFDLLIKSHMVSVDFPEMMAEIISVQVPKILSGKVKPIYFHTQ
Description: Displacement of [3H]DHT from human AR in MDA453 cells

Androgen receptor [2] = molecular target: T2, Androgen receptor (Rattus norvegicus, UniProt P15207)
T2 sequence (P15207 whole entry): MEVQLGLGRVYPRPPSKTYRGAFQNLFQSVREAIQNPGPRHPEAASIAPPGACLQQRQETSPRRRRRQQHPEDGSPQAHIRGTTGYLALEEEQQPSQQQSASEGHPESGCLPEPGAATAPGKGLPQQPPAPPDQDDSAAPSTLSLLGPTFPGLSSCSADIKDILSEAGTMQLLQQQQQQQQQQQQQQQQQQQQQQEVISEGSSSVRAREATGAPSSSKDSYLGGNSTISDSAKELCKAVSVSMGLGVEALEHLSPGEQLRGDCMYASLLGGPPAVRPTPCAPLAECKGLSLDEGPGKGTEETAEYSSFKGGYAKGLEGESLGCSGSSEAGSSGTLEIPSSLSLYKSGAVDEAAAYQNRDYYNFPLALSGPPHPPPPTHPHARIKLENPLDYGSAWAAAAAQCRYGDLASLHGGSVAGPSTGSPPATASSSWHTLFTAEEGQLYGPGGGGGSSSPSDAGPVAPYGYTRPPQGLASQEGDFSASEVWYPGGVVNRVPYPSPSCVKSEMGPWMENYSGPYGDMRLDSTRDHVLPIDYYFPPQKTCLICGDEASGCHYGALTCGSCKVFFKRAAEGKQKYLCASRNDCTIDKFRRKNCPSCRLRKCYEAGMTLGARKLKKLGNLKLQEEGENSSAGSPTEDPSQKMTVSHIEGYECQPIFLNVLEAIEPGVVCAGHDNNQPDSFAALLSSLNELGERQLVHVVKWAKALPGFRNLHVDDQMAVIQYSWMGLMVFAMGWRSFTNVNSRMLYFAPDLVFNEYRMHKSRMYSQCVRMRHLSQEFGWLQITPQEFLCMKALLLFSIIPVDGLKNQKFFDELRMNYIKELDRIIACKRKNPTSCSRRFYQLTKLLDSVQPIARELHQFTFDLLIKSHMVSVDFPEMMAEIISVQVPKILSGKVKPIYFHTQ
Description: Agonist activity at rat AR transfected in mouse C2C12 cells by luciferase reporter transactivation assay

Androgen receptor [3] = molecular target: T2, Androgen receptor; assay: Antagonist activity against rat AR transfected in mouse C2C12 cells by luciferase reporter transactivation assay relative to DHT; format: functional, cell-based
Rattus norvegicus [4] = assay: Inhibition of LH secretion in sc dosed castrated Sprague-Dawley rat; format: functional, organism-based
Rattus norvegicus [5] = assay: Stimulation of prostate growth in sc dosed castrated Sprague-Dawley rat; format: functional; settings: Prostate gland
Rattus norvegicus [6] = assay: Selectivity for stimulation of levator ani muscle over prostate in sc dosed castrated Sprague-Dawley rat; format: functional
Rattus norvegicus [7] = assay: Stimulation of levator ani muscle growth in sc dosed castrated Sprague-Dawley rat; format: functional
Rattus norvegicus [8] = assay: Selectivity for stimulation of levetor ani muscle over suppression of LH secretion in sc dosed castrated Sprague-Dawley rat; format: functional, Muscle tissue
Rattus norvegicus [9] = assay: Stimulation of levator ani muscle growth in orally dosed castrated Sprague-Dawley rat; format: functional; settings: po
Rattus norvegicus [10] = assay: Stimulation of prostate growth in orally dosed castrated Sprague-Dawley rat; format: functional; settings: Prostate gland, po
Rattus norvegicus [11] = assay: Inhibition of LH secretion in orally dosed castrated Sprague-Dawley rat; format: functional; settings: po

Row | SMILES | Ki (Androgen receptor [1]) | EC50 (Androgen receptor [2]) | other results
1 | O=C1C2CCCN2C(=O)N1c1ccc([N+](=O)[O-])c2ccccc12 (centres undefined) | 1.7 nM | 270 nM | 
2 | O=C1C2C(O)CCN2C(=O)N1c1ccc([N+](=O)[O-])c2ccccc12 (racemic) | 3.5 nM | 4.4 nM | 
3 | O=C1[C@H]2C[C@H](O)CN2C(=O)N1c1ccc([N+](=O)[O-])c2ccccc12 | 4.3 nM | 265 nM | 
4 | O=C1[C@H]2[C@@H]3CC[C@@H](C3)N2C(=O)N1c1ccc([N+](=O)[O-])c2ccccc12 | 1 nM | 385 nM | 
5 | O=C1[C@@H]2[C@H](O)CCN2C(=O)N1c1ccc([N+](=O)[O-])c2ccccc12 | 2.1 nM | 1.5 nM | 
6 | N#Cc1ccc(N2C(=O)[C@@H]3[C@H](O)CCN3C2=O)c2ccccc12 (single isomer, unassigned) |  | 1300 nM | IC50 (Androgen receptor [3]): 60 nM
7 | CCC(=O)O[C@H]1CC[C@H]2[C@@H]3CCC4=CC(=O)CC[C@]4(C)[C@H]3CC[C@]12C [TESTOSTERONE PROPIONATE] |  |  | EC50 (Rattus norvegicus [4]): 0.26 mg/kg; ED50 (Rattus norvegicus [5]): 0.42 mg/kg; Ratio ED50 (Rattus norvegicus [6]): 2; ED50 (Rattus norvegicus [7]): 0.21 mg/kg; Ratio ED50 (Rattus norvegicus [8]): 1.2
8 | N#Cc1ccc(N2C(=O)[C@H]3[C@@H]4CC[C@@H](C4)N3C2=O)c2ccccc12 | 24 nM | > 1000 nM | IC50 (Androgen receptor [3]): 260 nM
9 | O=C1[C@H]2C[C@@H](O)CN2C(=O)N1c1ccc([N+](=O)[O-])c2ccccc12 | 1.5 nM | 320 nM | 
10 | O=C1[C@@H]2[C@H](O)CCN2C(=O)N1c1ccc([N+](=O)[O-])c2ccccc12 (single isomer, unassigned) | 1.5 nM | 281 nM | 
11 | N#Cc1ccc(N2C(=O)[C@@H]3[C@H](O)CCN3C2=O)c2ccccc12 |  | 2.3 nM | ED50 (Rattus norvegicus [9]): 2 mg/kg; ED50 (Rattus norvegicus [10]): > 100 mg/kg; ED50 (Rattus norvegicus [11]): 60 mg/kg
12 | N#Cc1ccc(N2C(=O)C3C(O)CCN3C2=O)c2ccccc12 (racemic) |  | 6.3 nM | 

Source: ChEMBL document CHEMBL1138210, “Discovery of potent, orally-active, and muscle-selective androgen receptor modulators based on an N-aryl-hydroxybicyclohydantoin scaffold” (J Med Chem, 2006)
